Consider nine molecules from patent publication US20250195524A1, “PYRIMIDO-PYRIDAZINONE COMPOUND AS TOLL-LIKE RECEPTOR AGONIST” (SHANGHAI VISONPHARMA CO., LTD., priority 2022, published 2025).

Broadly, the EC50 is the concentration giving half of the maximal effect.

For this assay, the target named is T1, human TLR8 (Homo sapiens, UniProt Q9NR97).
T1 construct: host or cells: HEK-Blue hTLR8 (HEK293-derived reporter cells)
T1 sequence (Q9NR97 27-1041): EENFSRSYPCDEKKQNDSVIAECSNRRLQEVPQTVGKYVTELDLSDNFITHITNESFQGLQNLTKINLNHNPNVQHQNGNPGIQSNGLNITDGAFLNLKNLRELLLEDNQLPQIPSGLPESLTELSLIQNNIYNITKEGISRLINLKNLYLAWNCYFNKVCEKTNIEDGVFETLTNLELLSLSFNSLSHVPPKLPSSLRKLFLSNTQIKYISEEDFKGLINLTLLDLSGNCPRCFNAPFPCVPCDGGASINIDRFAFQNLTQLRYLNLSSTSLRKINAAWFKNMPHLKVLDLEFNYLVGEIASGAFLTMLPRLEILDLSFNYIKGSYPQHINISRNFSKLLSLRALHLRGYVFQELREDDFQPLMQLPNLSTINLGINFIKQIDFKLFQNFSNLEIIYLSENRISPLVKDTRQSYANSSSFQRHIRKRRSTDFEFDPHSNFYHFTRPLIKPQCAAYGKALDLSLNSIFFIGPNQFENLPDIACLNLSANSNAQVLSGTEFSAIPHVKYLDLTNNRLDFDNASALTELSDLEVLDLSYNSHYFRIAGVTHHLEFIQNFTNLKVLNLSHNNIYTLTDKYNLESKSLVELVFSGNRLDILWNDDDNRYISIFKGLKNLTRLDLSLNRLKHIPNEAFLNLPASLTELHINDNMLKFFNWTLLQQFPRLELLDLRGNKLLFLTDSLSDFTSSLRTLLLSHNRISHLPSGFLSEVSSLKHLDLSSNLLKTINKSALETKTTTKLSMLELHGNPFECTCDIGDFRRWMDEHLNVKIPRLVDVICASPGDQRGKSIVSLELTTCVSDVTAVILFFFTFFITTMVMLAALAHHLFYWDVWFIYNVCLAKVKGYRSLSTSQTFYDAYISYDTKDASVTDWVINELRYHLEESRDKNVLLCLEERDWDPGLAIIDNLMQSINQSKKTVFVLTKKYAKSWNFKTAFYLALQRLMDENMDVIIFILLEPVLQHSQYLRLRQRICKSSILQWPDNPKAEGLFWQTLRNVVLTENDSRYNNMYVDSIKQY
In words: HEK-Blue hTLR8 SEAP reporter gene agonism assay. It counts as cell-based. Conditions: HEK-Blue hTLR8 cells, SEAP (Quanti-blue, 650 nm), 16-22 hours incubation. As to the method:
The agonistic activity of the compounds of the present invention on TLR7 or TLR8 was evaluated using HEK-Blue™ cells stably expressing human TLR7 or TLR8. And the agonistic activity was assayed using their ability to induce the SEAP reporter gene under the control of the IFN-β minimal promoter fused to five NF-κB and ap-1 binding sites, specifically as follows:
HEK-Blue™ hTLR7 (Invivogen, 80,000 cells per well) or HEK-Blue™ hTLR8 (Invivogen, 60,000 cells per well) was added to a 96-well cell culture plate, the compound to be tested is added whereafter, and the final concentration of the compound(s) to be tested in the medium ranged from 0.001 to 36 μM, then incubated for 16-22 hours. SEAP levels in the cell culture medium were detected using HEK-Blue assay reagent Quanti-blue (Invivogen) according to the manufacturer's instructions. Neo2 Multifunctional Enzyme Labeler (Bio-tek) was used to determine the light absorption at 650 nm. GraphPad Prism was utilized to calculate the EC50, which is the half effective concentration of the drug.
In general terms: Reporter assays use an easily measured gene product as a stand-in for the process of interest.

In turn, `CCC[C@@H](CO)Nc1nc(N)nc2cnn(Cc3ccc(C(=O)N4CCNCC4)cc3)c(=O)c12` [Compound I-58, (S)-2-amino-4-((1-hydroxypentan-2-yl)amino)-6-(4-(piperazine-1-carbonyl)benzyl)pyrimido[4,5-d]pyridazin-5(6H)-one] showed an EC50 of 73 nM. The molecule `CCC[C@@H](CO)Nc1nc(N)nc2cnn(Cc3ccc(CN4CCCC4)cc3)c(=O)c12` [Compound I-59, (S)-2-amino-4-((1-hydroxypentan-2-yl)amino)-6-(4-(pyrrolidin-1-ylmethyl)benzyl)pyrimido[4,5-d]pyridazin-5(6H)-one] returned an EC50 of 9 nM. The result for `CCC[C@@H](C)Nc1nc(N)nc2cnn(Cc3ccc(C(=O)N4CCN(C)CC4)cc3)c(=O)c12` [Compound I-60, (R)-2-amino-6-(4-(4-methylpiperazine-1-carbonyl)benzyl)-4-(pentan-2-ylamino)pyrimido[4,5-d]pyridazin-5(6H)-one] reads 192 nM; that for `CCCCNc1nc(N)nc2cnn(Cc3ccc(CN4CCCC4)cn3)c(=O)c12` [Compound I-62, 2-amino-4-(butylamino)-6-((5-(pyrrolidin-1-ylmethyl)pyridin-2-yl)methyl)pyrimido[4,5-d]pyridazin-5(6H)-one], 589 nM. The result for `CCC[C@@H](CC)Nc1nc(N)nc2cnn(Cc3ccc(CN4CCCC4)cc3)c(=O)c12` [Compound I-63, (R)-2-amino-4-(hexan-3-ylamino)-6-(4-(pyrrolidin-1-ylmethyl)benzyl)pyrimido[4,5-d]pyridazin-5(6H)-one] reads 534 nM; that for `CCC[C@@H](CO)Nc1nc(N)nc2cnn(Cc3ccc(CN4CCN(C)CC4)cc3)c(=O)c12` [Compound I-66, (S)-2-amino-4-((1-hydroxypentan-2-yl)amino)-6-(4-((4-methylpiperazin-1-yl)methyl)benzyl)pyrimido[4,5-d]pyridazin-5(6H)-one], 23 nM; that for `CCCC[C@@H](CO)Nc1nc(N)nc2cnn(Cc3ccc(CN4CCCC4)cc3)c(=O)c12` [Compound I-67, (S)-2-amino-4-((1-hydroxyhexan-2-yl)amino)-6-(4-(pyrrolidin-1-ylmethyl)benzyl)pyrimido[4,5-d]pyridazin-5(6H)-one], 51 nM. The result for `CCC[C@@H](CO)Nc1nc(N)nc2cnn(Cc3ccc(C(=O)N4CCN(C)CC4)cc3)c(=O)c12` [Compound I-69, (S)-2-amino-4-((1-hydroxypentan-2-yl)amino)-6-(4-(4-methylpiperazine-1-carbonyl)benzyl)pyrimido[4,5-d]pyridazin-5(6H)-one] reads 41 nM. On to `CCC[C@@H](CO)Nc1nc(N)nc2cnn(Cc3ccc(C(=O)N4CC5CC(C4)N5)cc3)c(=O)c12` [Compound I-70, 6-(4-(3,6-diazabicyclo[3.1.1]heptane-3-carbonyl)benzyl)-2-amino-4-(((S)-1-hydroxypentan-2-yl)amino)pyrimido[4,5-d]pyridazin-5(6H)-one], for which the EC50 was determined as 20 nM.
